How the values were obtained:
Type in all cases: cell-based
[1] = tested on: human microvascular pericytes (PC); assay: Long-term (28 day) differentiation of PC on glass coverslips: matrix deposition, fibrotic lesions, α-SMA and vimentin; settings: for increase in the formation of lesions compared with nonactivated control: glass
Procedure: Human microvascular PC were isolated from a readily available and nearly inexhaustible source, human placental tissue, by microvascular segment explant outgrowth (Sava et al., Microcirculation, 2015, 22:54-67; Ayres-Sander et al., PLoS One, 2013, 8:e60025; Lauridsen et al., FASEB, 2014, 28:1166-1180; Maier et al., Microcirculation, 2010, 17:367-380). Human placental tissue was segmented, digested with collagenase, and the resulting cells were cultured in M199 (Gibco, Grand Island, NY, USA) medium supplemented with 20% FBS (Hyclone Laboratories, Logan, Utah, USA), and 1% penicillin-streptomycin (Gibco). Isolated pericytes were screened by flow cytometry against NG2 (H-300, Santa Cruz Biotechnology), CD90 (K-15, Santa Cruz), CD146 (P1H12, Biolegend, San Diego, Calif., USA), PDGFR-β (18A2, Santa Cruz), α-SMA (1A4, Santa Cruz), SMMHC (N-16, Santa Cruz), CD31 (C20, Santa Cruz), CD34 (581, Sigma) and CD45 (MEM-28, Sigma). As negative control, PC were incubated with isotype matched IgG. Samples were run on a Stratedigm S1000EXi Flow Cytometer (Stratedigm, San Jose, Calif. USA) and analyzed with FlowJo software (Tree Star, Ashland, Oreg., USA).
For short term (7 day) differentiation studies, PC (passage 3-7) were seeded on healthy or IPF lung tissue slices, polyacrylamide hydrogels, or 25 mm glass coverslips (VWR) at 100×10^3 cells per sample and activated with control media (non-activated), or 1 ng/mL TGF-β1 (PeproTech, Rocky Hill, N.J., USA) for 7 days (18, 19). For bleomycin activation, the cells were activated with 1 μg/mL bleomycin sulfate (Cayman Chemical, Ann Arbor, Mich.) for 1 day and the media was replaced with non-activated media for the remaining 6 days (Sava et al., Microcirculation, 2015, 22:54-67; Sterling et al., J Bio Chem, 1983, 258:14438-14444). TGF-β1 and bleomycin concentrations were based on reports consistent with activation of fibroblasts (Sava et al., Microcirculation, 2015, 22:54-67; Maroni and Davis, Bio Reprod, 2012, 87:127). Treatment with CCG-1423 (Sigma) was performed at day 0 for the full 7 days, and labeled as early treatment, or at day 7 and performed for 7 days, and labeled as late treatment. For long-term (28 day) differentiation studies, PC were cultured on 25 mm glass coverslips (VWR) or normal lung sections and the cell media was supplemented with 100 μM ascorbic acid (Spectrum Chemicals, New Brunswick, N.J., USA) to induce matrix deposition. Activation was performed with control media (non-activated), or 1 ng/mL TGF-β1. The media was replaced 3 times a week for 4 consecutive weeks (28 days) in order to mimic the chronic conditions present during fibrosis (Moeller et al., Int J Biochem Cell Biol, 2008, 40:362-382; Sava et al., Microcirculation, 2015, 22:54-67). Treatment with nintedanib (Santa Cruz) was performed at day 21 for the remaining 7 days, and labeled as early treatment, or at day 28 and performed for 2 days, and labeled as late treatment. Concentrations of CCG-1423 (1.0 nM), and nintedanib (1.0 nM) are based on therapeutic dose in studies performed on myofibroblasts (Evelyn et al., Mol Cancer Ther, 2007, 6:2249-2260, Hostettler et al., Resp Res, 2014, 15:157; Conte et al., Eur J Pharm Sci, 2014, 58:13-19; Shi et al., PLoS One, 2011, 6:e28134).
Pericyte pro-fibrotic activation/transition/phenotype was evaluated by positive staining for α-smooth muscle actin (SMA) using anti-α-SMA (1A4, Santa Cruz) and anti-vimentin (V630, Sigma). For matrix composition analysis, the coverslips were stained with anti-collagen I (ab233446, Abcam, Cambridge, Mass., USA), anti-laminin (Clone ab11575, Abcam), anti-collagen IV (Clone C1926, Sigma), or anti-fibronectin (Clone F3648, Sigma) antibodies.

[2] = tested on: human microvascular pericytes (PC); assay: Gelatinase zymography of active MMP2 and MMP9 from TGF-β1-activated PC with or without nintedanib
[3] = tested on: human microvascular pericytes (PC); assay: ELISA of MMPs in supernatant of TGF-β1-activated PC with or without nintedanib; settings: nintedanib versus TGF-β1 alone
[4] = nintedanib 7 days, TGF-β1-activated PC on glass, flow cytometry

Compound | expression of vimentin [1, 4] | expression of α-SMA [1, 4] | fibrotic node formation ([1]; nintedanib 7 days, TGF-β1-activated PC on glass, versus TGF-β1) | fibronectin ([1]; nintedanib 7 days, TGF-β1-activated PC on glass, versus TGF-β1, immunoblotting, P=0.002) | collagen I ([1]; nintedanib 7 days, TGF-β1-activated PC on glass, versus TGF-β1, immunoblotting, P=0.01) | generation of active MMP9 ([2]; P<0.01) | generation of active MMP2 ([2]; P<0.05) | expression of MMP10 [3] | MMP13 in supernatant ([3]; P<0.001) | MMP9 in supernatant ([3]; P<0.01) | MMP8 in supernatant ([3]; P<0.05) | increase in the formation of lesions compared with nonactivated control ([1]; day 14 of TGF-β1 exposure, P<0.001) | increase in the formation of lesions compared with nonactivated control ([1]; day 28 of TGF-β1 exposure, P<0.01) | vimentin expression compared with nonactivated control ([1]; long-term TGF-β1 activation on glass, P<0.0001) | α-SMA expression compared with nonactivated control ([1]; long-term TGF-β1 activation on glass, P=0.011)
COC(=O)c1ccc2c(c1)NC(=O)/C2=C(\Nc1ccc(N(C)C(=O)CN2CCN(C)CC2)cc1)c1ccccc1 [nintedanib] | without affecting | without affecting | reduced | reduced | reduced | enhanced | enhanced | did not increase | substantial increases | substantial increases | substantial increases |  |  |  | 
TGF-β1: transforming growth factor (TGF)-β1, fibrotic activator, used at 1 ng/mL |  |  |  |  |  |  |  |  |  |  |  | 2.2 fold | 1.8 fold | significant increase | significant increase

Source: US20180298344A1, “Realistic Humanized Model of Disease Matrix Environment for Evaluation of Therapeutic Reversal or Cell Fate” (Yale University, priority 2017, published 2018)
